Test results: patent US7566737B2 (Genfit, priority 2002, dated 2009)

What was measured:
LDL = test: Protection against LDL oxidation by copper (conjugated diene formation); format: biochemical; details: for antioxidant properties on LDL oxidation by copper (in words): FIGS. 1-1 to 1-14
Description: LDL oxidation is an important alteration and plays a predominant role in the establishment and development of atherosclerosis (Jurgens G et al., 1987). […] Unless otherwise indicated, the reagents were from Sigma (St Quentin, France). LDL were prepared according to the method described by (Havel R J et al., 1955). The solutions of test compounds were prepared at 10^−2 M concentration in bicarbonate buffer (pH 9) and diluted in PBS to obtain final concentrations ranging from 0.1 to 100 μM for a total ethanol concentration of […]. Prior to oxidation, EDTA was removed from the LDL preparation by dialysis. Oxidation then took place at 30° C. by addition of 100 μl of 16.6 μM CuSO4 solution to 160 μL of LDL (125 μg protein/ml) and 20 μl of a test compound solution. The formation of dienes, the species under observation, was followed by measuring optical density at 234 nm in the samples treated with the compounds but in the presence or absence of copper. Optical density at 234 nm was measured every 10 minutes for 8 hours in a thermostated spectrophotometer (Tecan Ultra 380). The compounds were considered to have antioxidant activity when they induced a longer lag phase and reduced the rate of oxidation and the amount of dienes formed in comparison with the control sample.

[1] = system: hApoE2 Knock-in transgenic mice; test: Effects on triglycerides and cholesterol metabolism in vivo; design: species or system mouse; details: 50 mg/kg/day for 7 or 8 days
Description: Treatment of animals: hApoE2 knock-in transgenic mice were kept on a 12-hour light/dark cycle at a constant temperature of 20±3° C. After a 1 week acclimation, mice were separated in groups of 6 animals selected such that the distribution of their body weight and plasmatic lipid levels determined before the experiment were uniform. The test compounds were suspended in carboxymethylcellulose and administered by intragastric gavage at the indicated doses, once a day for 7 or 8 days. Animals had access to food and water ad libitum. At the end of the experiment the animals were weighed and sacrificed under anesthesia. Blood was collected on EDTA. Plasma was prepared by centrifugation at 3000 rpm for 20 minutes. Organs were harvested, frozen in liquid nitrogen and stored at −80° C. for subsequent analysis.
Measurement of serum lipids: Serum lipid concentrations (total cholesterol and triglycerides) were determined by a colorimetric assay (Boehringer, Mannheim, Germany) according to the supplier's instructions.

SMILES: COc1cc(/C=C/C(=O)c2ccccc2O)cc(OC)c1OC(C)(C)C(=O)O [Compound 5, 1-[2-hydroxyphenyl]-3-[3,5-dimethoxy-4-carboxydimethylmethyloxyphenyl]prop-2-en-1-one]
- antioxidant properties on LDL oxidation by copper (in words) (LDL): antioxidant properties

SMILES: CCCCCCOc1ccccc1C(=O)/C=C/c1cc(C)c(OC(C)(C)C(=O)O)c(C)c1 [Compound 82, 1-[2-hexyloxyphenyl]-3-[3,5-dimethyl-4-carboxydimethylmethyloxyphenyl]prop-2-en-1-one]
- plasma cholesterol ([1]; FIGS. 4-13, 4-15, 4-17, 4-19): decrease
- plasma triglycerides ([1]; FIGS. 4-14, 4-16, 4-18, 4-20): decrease

SMILES: COc1cc(/C=C/C(=O)c2ccc(Cl)cc2O)cc(OC)c1OC(C)(C)C(=O)O [Compound 6, 1-[2-hydroxy-4-chlorophenyl]-3-[3,5-dimethoxy-4-carboxydimethylmethyloxyphenyl]prop-2-en-1-one]
- antioxidant properties on LDL oxidation by copper (in words) (LDL): antioxidant properties

SMILES: Cc1cc(-c2cc(=O)c3ccc(Cl)cc3o2)cc(C)c1OC(C)(C)C(=O)O [Compound 35, 2-(3,5-dimethyl-4-carboxydimethylmethyloxyphenyl)-7-chloro-4H-1-benzopyran-4-one]
- lag phase of conjugated diene formation (LDL; 10^−4M, FIG. 1-9, copper alone 80 minutes): 149 min
- rate of conjugated diene formation (LDL; 10^−4M, FIG. 1-10, copper alone 1.9): 1.5 nmol/min/mg of LDL

SMILES: Cc1cc(/C=C/C(=O)c2ccc(Br)cc2O)cc(C)c1OC(C)(C)C(=O)O [Compound 25, 1-[2-hydroxy-4-bromophenyl]-3-[3,5-dimethyl-4-carboxydimethylmethyloxyphenyl]prop-2-en-1-one]
- lag phase of conjugated diene formation (LDL; 10^−4M, FIG. 1-7, copper alone 82 minutes): 120 min
- maximum amount of conjugated dienes formed (LDL; FIG. 1-8, copper alone 393): 378 nmol per mg of LDL
